Data from patent US20100279995A1, “Novel Ansamycin Derivatives” (priority 2005, published 2010).

Key:
[1] = Cleavage assay in phosphate buffer; format: physicochemical; conditions: cleavage to 18,21-dihydromacbecin
Method: (§1) Cleavage Assays for Pro-Drugs of 18,21-dihydromacbecin
(§2) Assays to determine the rate of cleavage of the pro-drugs into their parent compounds were performed as described herein. These were carried out in plasma, blood or buffer. Mixed mouse, human or mixed rat plasma containing EDTA or heparin as an anti-coagulant was used or whole defibrinated rabbit blood (mouse and rat plasma and rabbit blood were obtained from Harlan-Sera Labs, human plasma was obtained from Biopredic International).
The stability of the test compounds in phosphate-buffered saline (PBS) of specific pH over the course of each experiment was also analysed using the same methodology.
After the final time point was sampled, the samples were extracted as follows. For each time point sample an Oasis MCX (3 cc/60 mg) or Oasis HLB (333/60 mg) cartridge was conditioned and equilibrated with 2 mL methanol followed by 2 mL water. 1.5 mL water and an internal standard (IS) at 0.002 mg/mL were added to each 0.4 mL plasma sample. This was loaded to the cartridge. The cartridge was washed with 2 mL water and the analytes were eluted in 2 ml MeOH. This extract was analysed without further treatment by LC/MS using the conditions described below.
The cleavage of compounds 1-3 was also measured in phosphate buffer as described in the General Methods—Cleavage Assay above at pH 7.2 and pH 7.4 and T1/2 values calculated as indicated in Table 5 below.

[2] = Cleavage assay in whole defibrinated rabbit blood; format: in vitro ADME
Method: as §1, §2
If using whole blood such as defibrinated whole rabbit blood the following protocol was used: The blood was thawed at 37° C. in a water bath. Blood was dispensed into individual 20 mL tubes for each test compound allowing 0.5 mL for each time point to be analysed. A tube containing blood was also included as a control. These tubes were incubated for 15 minutes at 37° C.
Each test compound was reconstituted in DMSO or other appropriate solvent. The blood was removed from the water bath and the compound was added to give a final concentration of 0.001-0.010 mg/mL keeping the final concentration of solvent below 5%. In the case of the control, an equivalent volume of DMSO or other solvent was added. Immediately after the addition of compound a 0.4 mL sample was taken from the tube, transferred to a 2 mL microfuge tube. The plasma was promptly returned to the 37° C. water bath. 0.4 mL samples were taken at regular time points (e.g. after 30 min and then hourly) and were immediately frozen at −80° C. To each 0.4 mL sample in its 2 mL microfuge tube was added 1.5 mL of 0.1 M potassium dihydrogen phosphate, this was inverted to mix. A stable internal standard (IS) in acetonitrile was added at 0.002 mg/mL. This was agitated for 5 min on an IKA shaker at 1500 rpm. Centrifugation at 5000 rpm for 5 min lead to a dense pellet made up of red blood cells and precipitated protein, and a pink/red supernatant. An Oasis HLB (333/60 mg) cartridge was equilibrated with 2 mL of methanol followed by 2 mL of water. […]
The HPLC conditions were: 10% B for 1 min followed by a linear gradient to 100% B over a period of 7 min and an isocratic period of 2 min at 100% B. The analytes were detected by UV absorbance at 255 nm and mass spectrometry using a Bruker Daltonics Esquire 3000+ mass spectrometer coupled to the HPLC. The analytes were quantified based on the extracted ion chromatogram. To ensure a reliable quantification, the linear response of the mass spectrometer was checked for the concentration range of interest.
Each compound was assessed for cleavage to 18,21-dihydromacbecin as follows. […] The samples were applied to a cartridge described above and analysed immediately using Analysis Method C.

PRXF DU-145 xenografts = assay: In vivo evaluation of antitumor efficacy in PRXF DU-145 xenografts; parameters: species or system nude mice; conditions: 60 mg/kg/d i.p. on Days 0-4, 7-11, 14-18, 21, 24, 25, 28 and 29; recorded on day 31; p<0.001 vs vehicle control
LNCAP = assay: Monolayer proliferation assay (modified propidium iodide); format: cell-based, human; conditions: 4 days exposure
Source text: (§3) In vitro evaluation of compounds for anticancer activity in a panel of 12 human tumour cell lines in a monolayer proliferation assay may be carried out at the Oncotest Testing Facility, Institute for Experimental Oncology, Oncotest GmbH, Freiburg.
(§4) The Oncotest cell lines were established from human tumor xenografts as described by Roth et al., (1999). The origin of the donor xenografts is described by Fiebig et al., (1999). Other cell lines were either obtained from the NCI (H460, SF-268, OVCAR-3, DU145, MDA-MB-231, MDA-MB-468) or purchased from DSMZ, Braunschweig, Germany (LNCAP).
(§5) All cell lines, unless otherwise specified, were grown at 37° C. in a humidified atmosphere (95% air, 5% CO2) in a ‘ready-mix’ medium containing RPMI 1640 medium, 10% fetal calf serum, and 0.1 mg/mL gentamicin (PAA, Cölbe, Germany).
(§6) A modified propidium iodide assay was used to assess the effects of the test compound(s) on the growth of twelve human tumour cell lines (Dengler et al., (1995)).
(§7) Briefly, cells were harvested from exponential phase cultures by trypsinization, counted and plated in 96 well flat-bottomed microtitre plates at a cell density dependent on the cell line (5-10.000 viable cells/well). After 24 h recovery to allow the cells to resume exponential growth, 0.010 mL of culture medium (6 control wells per plate) or culture medium containing macbecin was added to the wells. Each concentration was plated in triplicate. Compounds were applied in two concentrations (0.001 mM and 0.01 mM). Following 4 days of continuous exposure, cell culture medium with or without test compound is replaced by 0.2 mL of an aqueous propidium iodide (PI) solution (7 mg/L). To measure the proportion of living cells, cells are permeabilized by freezing the plates. After thawing the plates, fluorescence was measured using the Cytofluor 4000 microplate reader (excitation 530 nm, emission 620 nm), giving a direct relationship to the total number of viable cells.
(§8) Growth inhibition is expressed as treated/control×100 (% T/C).
(§9) In vitro evaluation of macbecin for anticancer activity in a panel of 12 human tumor cell lines in a monolayer proliferation assay was carried out as described in the general methods using a modified propidium iodide assay.

DU145 = assay: as above; format: cell-based, human; conditions: 4 days exposure
Source text: as §3, §4, §5, §6, §7, §8, §9

UXF 1138L = assay: as above; format: cell-based, human; conditions: 4 days exposure
Source text: as §3, §4, §5, §6, §7, §8, §9

MCF-7 = assay: as above; format: cell-based, human; conditions: MCF7, 4 days exposure
Source text: as §3, §4, §5, §6, §7, §8, §9

SF-268 = assay: as above; format: cell-based, human; conditions: SF268, 4 days exposure
Source text: as §3, §4, §5, §6, §7, §8, §9

MEXF 394NL = assay: as above; format: cell-based, human; conditions: 4 days exposure
Source text: as §3, §4, §5, §6, §7, §8, §9

MDA-MB-468 = assay: as above; format: cell-based, human; conditions: MDA468, 4 days exposure
Source text: as §3, §4, §5, §6, §7, §8, §9

A498 = assay: as above; format: cell-based, human; conditions: 4 days exposure
Source text: as §3, §4, §5, §6, §7, §8, §9

NCI-H460 = assay: as above; format: cell-based, human; conditions: 4 days exposure
Source text: as §3, §4, §5, §6, §7, §8, §9

GXF 251L = assay: as above; format: cell-based, human; conditions: 4 days exposure
Source text: as §3, §4, §5, §6, §7, §8, §9

OVCAR-3 = assay: as above; format: cell-based, human; conditions: OVCAR3, 4 days exposure
Source text: as §3, §4, §5, §6, §7, §8, §9

MDA-MB-231 = assay: as above; format: cell-based, human; conditions: MDA231, 4 days exposure
Source text: as §3, §4, §5, §6, §7, §8, §9

Reverse transcriptase = conditions: Ono et al., 1982; cited from earlier work
[3] = target: terminal deoxynucleotidyl transferase (Homo sapiens, UniProt P04053); conditions: Ono et al., 1982; cited from earlier work
[4] = Phosphate Buffer pH 7.2 (37° C.)
[5] = Phosphate Buffer pH 7.4 (37° C.)
[6] = Rabbit blood pH 7.3 (37° C.) Run 1

terminal deoxynucleotidyl transferase, sequence (P04053 whole entry, species assumed): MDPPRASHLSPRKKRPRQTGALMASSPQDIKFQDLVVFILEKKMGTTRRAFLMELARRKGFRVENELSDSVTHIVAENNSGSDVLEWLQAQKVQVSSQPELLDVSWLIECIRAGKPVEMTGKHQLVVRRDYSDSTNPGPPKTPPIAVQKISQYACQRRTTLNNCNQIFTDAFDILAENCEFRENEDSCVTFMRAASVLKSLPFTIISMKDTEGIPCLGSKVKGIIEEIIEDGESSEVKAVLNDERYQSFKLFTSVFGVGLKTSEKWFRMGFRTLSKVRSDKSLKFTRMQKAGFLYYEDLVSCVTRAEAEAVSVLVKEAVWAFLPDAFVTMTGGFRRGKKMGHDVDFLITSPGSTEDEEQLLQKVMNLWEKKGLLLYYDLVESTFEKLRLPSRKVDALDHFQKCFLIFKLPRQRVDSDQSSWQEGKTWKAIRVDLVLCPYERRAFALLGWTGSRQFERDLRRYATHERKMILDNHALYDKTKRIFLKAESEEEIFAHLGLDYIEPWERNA

With `CNCCNC(=O)Oc1cc2c(O)c(c1)C(OC)C(C)CC(OC)C(OC)C(C)C=C(C)C(OC(N)=O)C(C)C=CC=C(C)C(=O)N2.Cl` (stereo not shown) [Compound 2, 18-O—(N-methylethylenediamine-N′-carbamoyl)-18,21-dihydromacbecin Hydrochloride Salt] the t1/2 [1, 4] was 627 min, the t1/2 [1, 5] was 127 min and the t1/2 [2, 6] was 153 min.
Work on “18-O—(N,N′-dimethylethylenediamine-N′-carbamoyl)-18,21-dihydromacbecin Hydrochloride Salt [Compound 1]” yielded a t1/2 [1, 4] of 64 min, a t1/2 [1, 5] of 49 min and a t1/2 [2, 6] of 45 min. For the same molecule, the t1/2 ([2]; Rabbit blood pH 7.3 (37° C.) Run 2) was 49 min and the “minimum T/C value” (PRXF DU-145 xenografts) was 24.3%.
In the case of `CO[C@H]1[C@@H](OC)C[C@H](C)[C@@H](OC)C2=CC(=O)C=C(NC(=O)/C(C)=C/C=C\[C@@H](C)[C@@H](OC(N)=O)/C(C)=C/[C@@H]1C)C2=O` [macbecin], the “Test/Control (%) at drug concentration” value (LNCAP; 1 × 10−5 M) is reported as 27.5%, the “Test/Control (%) at drug concentration” value (LNCAP; 1 × 10−6 M) is reported as 43.5% and the “Test/Control (%) at drug concentration” value (DU145; 1 × 10−5 M) is reported as 14.5%. For the same molecule, the “Test/Control (%) at drug concentration” value (DU145; 1 × 10−6 M) was 42%, the “Test/Control (%) at drug concentration” value (UXF 1138L; 1 × 10−5 M) was 19% and the “Test/Control (%) at drug concentration” value (UXF 1138L; 1 × 10−6 M) was 75.5%. The “Test/Control (%) at drug concentration” value (MCF-7; 1 × 10−5 M) was 12%, the “Test/Control (%) at drug concentration” value (MCF-7; 1 × 10−6 M) was 35.5% and the “Test/Control (%) at drug concentration” value (SF-268; 1 × 10−5 M) was 20.5%. The “Test/Control (%) at drug concentration” value (SF-268; 1 × 10−6 M) was 95.5%, the “Test/Control (%) at drug concentration” value (MEXF 394NL; 1 × 10−5 M) was 17% and the “Test/Control (%) at drug concentration” value (MEXF 394NL; 1 × 10−6 M) was 21%. The “Test/Control (%) at drug concentration” value (MDA-MB-468; 1 × 10−5 M) was 4%, the “Test/Control (%) at drug concentration” value (MDA-MB-468; 1 × 10−6 M) was 14.5% and the “Test/Control (%) at drug concentration” value (A498; 1 × 10−5 M) was 82%. For the same molecule, the “Test/Control (%) at drug concentration” value (A498; 1 × 10−6 M) was 107.5%, the “Test/Control (%) at drug concentration” value (NCI-H460; 1 × 10−5 M) was 21.5% and the “Test/Control (%) at drug concentration” value (NCI-H460; 1 × 10−6 M) was 110%. The “Test/Control (%) at drug concentration” value (GXF 251L; 1 × 10−5 M) was 37%, the “Test/Control (%) at drug concentration” value (GXF 251L; 1 × 10−6 M) was 61% and the “Test/Control (%) at drug concentration” value (OVCAR-3; 1 × 10−5 M) was 37.5%. The “Test/Control (%) at drug concentration” value (OVCAR-3; 1 × 10−6 M) was 71%, the “Test/Control (%) at drug concentration” value (MDA-MB-231; 1 × 10−5 M) was 34% and the “Test/Control (%) at drug concentration” value (MDA-MB-231; 1 × 10−6 M) was 88%. For the same molecule, the “Reverse transcriptase activity inhibition” value (Reverse transcriptase) was “not inhibited” and the “terminal deoxynucleotidyl transferase activity inhibition” value [3] was “not inhibited”.
With “18-O—(N,N′-diethylethylenediamine-N′-carbamoyl)-18,21-dihydromacbecin Hydrochloride Salt [Compound 3]” the t1/2 [1, 4] was 276 min, the t1/2 [1, 5] was 160 min and the t1/2 [2, 6] was 160 min.
